This passage reports IC50 and Activity results from ChEMBL document CHEMBL4765305, “Elephantopinolide A-P, germacrane-type sesquiterpene lactones from Elephantopus scaber induce apoptosis, autophagy and G2/M phase arrest in hepatocellular carcinoma cells” (Eur J Med Chem, 2020).

In general, IC50 refers to the point on the concentration scale where inhibition reaches its midpoint.

Test [1] has as its system HepG2. Briefly: Anti-hepatoma activity against human HepG2 cells assessed as cell growth inhibition by MTT assay. The format is functional, cell-based.
Test [2] deals with Hep 3B2. Briefly: Anti-hepatoma activity against human Hep3B cells assessed as cell growth inhibition by MTT assay. The format is functional, cell-based. Background: Formazan colour is commonly taken as a measure of viable cells.
Test [3] concerns HepG2. Nature of the test: Induction of autophagy in human HepG2 cells by MDC staining based flow cytometry analysis (Rvb =4.46%). The format is functional. On the technique in general: A flow cytometer gives signals particle by particle.
Test [4] relates to Hep 3B2. Nature of the test: Induction of autophagy in human Hep3B cells by MDC staining based flow cytometry analysis (Rvb =3.52%). The format is functional.

For the compound `COC[C@@H]1C(=O)O[C@H]2[C@H]1[C@@H](O)CC1=C[C@H](C[C@@]3(C)O[C@@H]23)OC1=O`, the IC50 in the test with HepG2 [1] and in the test on Hep 3B2 [2] was > 20 µM in each case.
For the compound `C/C=C(\C)C(=O)O[C@H]1CC2=C[C@@H](C/C(C)=C/[C@H]3OC(=O)C(CO)=C13)OC2=O`, the half-maximal inhibitory concentration (IC50) with HepG2 [1] and with Hep 3B2 [2] was > 20 µM each time.
Turning to `C/C=C(/C)C(=O)O[C@H]1CC2=C[C@@H](C/C(C)=C/[C@H]3OC(=O)C(CO)=C13)OC2=O`, the IC50 in the test on HepG2 [1] and with Hep 3B2 [2] was > 20 µM throughout.
On to `C[C@@H]1C(=O)O[C@H]2CC3=C[C@@H](C[C@@](C)(O)/C=C/[C@@H]21)OC3=O`, for which the IC50 in the test with HepG2 [1] and with Hep 3B2 [2] was > 20 µM in each case.
Consider `C=C(C(=O)OC)[C@H]1/C=C/[C@](C)(O)C[C@@H]2C=C(C[C@@H]1OC(=O)/C(C)=C\C)C(=O)O2`, for which the IC50 in the test with HepG2 [1] and with Hep 3B2 [2] was > 20 µM in each case.
Regarding `C=C1C(=O)O[C@H]2CC3=C[C@@H](C[C@@](C)(O)/C=C/[C@H]12)OC3=O`, the IC50 in the test on HepG2 [1] and in the test on Hep 3B2 [2] was > 20 µM in each case.
Take `C=C1C(=O)O[C@H]2[C@H]1[C@@H](OC(=O)/C(C)=C\C)CC1=C[C@@H](C[C@@]3(C)O[C@@H]23)OC1=O`: the results for the IC50 in the test on HepG2 [1] and in the test on Hep 3B2 [2] were 5.99 µM and 3.74 µM, respectively.
Consider `CNC(=O)c1cc(Oc2ccc(NC(=O)Nc3ccc(Cl)c(C(F)(F)F)c3)cc2)ccn1` [SORAFENIB], for which the figures for the IC50 with HepG2 [1] and with Hep 3B2 [2] were 9.75 µM and 5.2 µM, respectively. Besides, the Activity in the test on HepG2 [3] was 4.1%; in the test on Hep 3B2 [4], 7.29%.
On to `C=C(C)C(=O)O[C@H]1CC2=C[C@H](C[C@@]3(C)O[C@H]3[C@H]3OC(=O)C(=C)[C@@H]31)OC2=O`, for which the IC50 was 2.55 µM in the test with HepG2 [1] and 4.26 µM in the test with Hep 3B2 [2].
For the compound `C=C1C(=O)O[C@H]2[C@H]1[C@@H](OC(=O)/C(C)=C\C)CC1=C[C@H](C[C@@]3(C)O[C@@H]23)OC1=O`, the IC50 in the test with HepG2 [1] turned out to be 2.97 µM; in the test on Hep 3B2 [2] it was 7.14 µM.
Regarding `C=C1C(=O)O[C@@H]2/C=C(\C)C[C@H]3C=C(C[C@H](OC(=O)C(C)C)[C@@H]12)C(=O)O3`, the IC50 was found to be 10.6 µM in the test on HepG2 [1] and 8.63 µM in the test on Hep 3B2 [2].
For the compound `C=C1C(=O)O[C@H]2[C@H]1[C@@H](OC(=O)/C(C)=C\C)CC1=C[C@H](CC(=C)[C@H]2O)OC1=O`, the IC50 in the test on HepG2 [1] stood at 8.35 µM; in the test with Hep 3B2 [2], 8.16 µM.
For the compound `C=C(C)C(=O)O[C@H]1CC2=C[C@H](C/C(C)=C/[C@H]3OC(=O)[C@@H](C)C13)OC2=O` (some centres undefined), the IC50 with HepG2 [1] and in the test on Hep 3B2 [2] was > 20 µM throughout.
Take `C=C(C)C(=O)OCC1=C2[C@@H](O)CC3=C[C@@H](C/C(C)=C/[C@H]2OC1=O)OC3=O`: the IC50 in the test on HepG2 [1] and with Hep 3B2 [2] was > 20 µM each time.
With `C=C(C)C(=O)O[C@H]1CC2=C[C@@H](C[C@@](C)(O)/C=C/[C@@H]1C(=C)C(=O)OC)OC2=O`, the IC50 with HepG2 [1] and with Hep 3B2 [2] was > 20 µM each time.
For `C=C(C)C(=O)O[C@H]1CC2=C[C@H](CC(=C)[C@@H](O)[C@H]3OC(=O)C(=C)[C@@H]31)OC2=O`, the results for the IC50 in the test with HepG2 [1] and in the test with Hep 3B2 [2] were 8.59 µM and 8.79 µM, respectively.
